Data: patent US20040147720A1, “Novel guasonine triphosphate-binding protein -coupled receptor place 6002312, its gene and production and use of the same” (priority 2001, published 2004)

Columns and labels:
[1] = tested on: HEK293 cells (Mock); details: HEK293 cells (Mock) with pcDNA3.1(−), not expressing PLACE6002312; [^3H]-histamine 0, 40, 80, 160 nM; room temperature 1 hr; FIG. 7
Protocol: (§1) The ligand-binding assay can serve as a direct method of receptor pharmacology, and is applicable to high-throughput systems. […] First, human embryonic kidney 293 (HEK293) cells were plated on a 10-cm cell culture dish at the cell density of 1×10^6 cells/dish, and incubated in a humidified incubator under 5% CO2 at 37° C. for 24 hr. Then, 10 μg/dish of pcDNA3.1(−)-PLACE6002312 plasmid was transfected by the calcium phosphate method (Mol. Pharm. (1997)-51: 171). After the culturing was continued for 14 hr, the medium was changed with fresh D-MEM containing 10% FBS, and the cells were incubated for another 2 days. After the culturing had completed, the cells were washed with PBS(−), and then suspended in FBS-free D-MEM at the cell density of 1×10^6 cells/ml. The cell suspension were aliquoted (50 μl/well) into flat-bottomed 96-well plate (Sumitomo Bakelite Co.) pre-siliconized with Siliconize L-25 (Fuji Systems). 50-μl aliquots of D-MEM were added to each well, and then radio-labeled [^3H]-histamine was added thereto at the final concentrations of 0, 40, 80, and 160 nM. The plate was incubated at room temperature for 1 hr. Assays for the non-specific binding of [^3H]-histamine were carried out using D-MEM to which unlabeled histamine had been added previously at the final concentration of 1×10^−5 M. […]

[2] = target: PLACE6002312 polypeptide (Homo sapiens, UniProt Q8TDU6); details: HEK293 cells with pcDNA3.1(−)-PLACE6002312; [^3H]-histamine 0, 40, 80, 160 nM; room temperature 1 hr; non-specific binding with 1×10^−5 M unlabeled histamine; FIG. 7
Protocol: as §1

Sequence of PLACE6002312 polypeptide (Q8TDU6 whole entry): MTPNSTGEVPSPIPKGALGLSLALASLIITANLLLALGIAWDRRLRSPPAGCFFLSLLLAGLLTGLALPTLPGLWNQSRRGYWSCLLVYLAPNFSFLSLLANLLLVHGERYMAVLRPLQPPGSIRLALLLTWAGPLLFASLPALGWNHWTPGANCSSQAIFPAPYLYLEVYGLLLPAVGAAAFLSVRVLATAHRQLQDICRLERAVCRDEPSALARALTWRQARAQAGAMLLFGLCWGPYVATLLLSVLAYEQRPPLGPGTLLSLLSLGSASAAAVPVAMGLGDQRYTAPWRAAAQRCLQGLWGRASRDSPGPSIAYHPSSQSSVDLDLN

SMILES: NCCc1c[nH]cn1 [histamine]
- specific binding to [^3H]-histamine (total binding minus non-specific binding) [1]: undetectable
- specific binding to [^3H]-histamine (total binding minus non-specific binding) [2]: detected
